Measurements published in ChEMBL document CHEMBL5356994, “Synthesis, biological and molecular modelling for 1,3,4-thiadiazole sulfonyl thioureas: bacterial and fungal activity” (RSC Med Chem, 2023).
Values after ≈ are worked out from the molar mass of the structure shown.

Assays:
Phytophthora infestans = assay: Antifungal activity against Phytophthora infestans assessed as inhibition of fungal growth incubated for 5 days by poison plate technique; assay type: functional, organism-based; conditions: 120 h
Clostridioides difficile = assay: Antibacterial activity against Clostridium difficile assessed as inhibition of bacterial growth incubated for 18 to 20 hrs by microbroth dilution method; assay type: functional; conditions: time 18-20 hrs
Streptococcus pneumoniae = assay: Antibacterial activity against Streptococcus pneumoniae assessed as inhibition of bacterial growth incubated for 18 to 20 hrs by microbroth dilution method; assay type: functional; conditions: time 18-20 hrs
Fusarium oxysporum = assay: Antifungal activity against Fusarium oxysporum assessed as inhibition of fungal growth incubated for 72 hrs by agar dilution method; assay type: functional
Aspergillus niger = assay: Antifungal activity against Aspergillus niger assessed as inhibition of fungal growth incubated for 72 hrs by agar dilution method; assay type: functional
[1] = tested on: Staphylococcus epidermidis; assay: Antibacterial activity against Staphylococcus epidermidis assessed as inhibition of bacterial growth incubated for 18 to 20 hrs by microbroth dilution method; assay type: functional; conditions: time 18-20 hrs
Saccharomyces cerevisiae = assay: Antifungal activity against Saccharomyces cerevisiae assessed as inhibition of fungal growth incubated for 72 hrs by agar dilution method; assay type: functional
Staphylococcus aureus [2] = assay: Antibacterial activity against Staphylococcus aureus assessed as inhibition of bacterial growth incubated for 18 to 20 hrs by microbroth dilution method; assay type: functional; conditions: time 18-20 hrs
Aspergillus flavus [3] = assay: Antifungal activity against Aspergillus flavus assessed as inhibition of fungal growth incubated for 72 hrs by agar dilution method; assay type: functional
Klebsiella pneumoniae = assay: Antibacterial activity against Klebsiella pneumoniae assessed as inhibition of bacterial growth incubated for 18 to 20 hrs by microbroth dilution method; assay type: functional; conditions: time 18-20 hrs
Bacillus subtilis = assay: Antibacterial activity against Bacillus subtilis assessed as inhibition of bacterial growth incubated for 18 to 20 hrs by microbroth dilution method; assay type: functional; conditions: time 18-20 hrs
Pseudomonas aeruginosa = assay: Antibacterial activity against Pseudomonas aeruginosa assessed as inhibition of bacterial growth incubated for 18 to 20 hrs by microbroth dilution method; assay type: functional; conditions: time 18-20 hrs
Candida albicans [4] = assay: Antifungal activity against Candida albicans assessed as inhibition of fungal growth incubated for 72 hrs by agar dilution method; assay type: functional
Escherichia coli [5] = assay: Antibacterial activity against Escherichia coli assessed as inhibition of bacterial growth incubated for 18 to 20 hrs by microbroth dilution method; assay type: functional; conditions: time 18-20 hrs
Salmonella typhimurium = assay: Antibacterial activity against Salmonella typhimurium assessed as inhibition of bacterial growth incubated for 18 to 20 hrs by microbroth dilution method; assay type: functional, Salmonella enterica subsp. enterica serovar Typhimurium; conditions: Salmonella enterica; time 18-20 hrs
Carbonic anhydrase 2 = Carbonic anhydrase 2 (Homo sapiens, UniProt P00918); assay: Inhibition of human carbonic anhydrase II esterase activity using p-nitrophenol acetate as substrate and measured for 3 mins by UV/visible spectrophotometric analysis
[6] = target: DNA topoisomerase 4 subunit B (Staphylococcus aureus, UniProt P0C1S7); assay: Inhibition of Staphylococcus aureus DNA topoisomerase 4 subunit B ATPase activity using relaxed pNO1 plasmid as substrate incubated for 30 mins by microplate reader analysis
Dihydrofolate reductase = Dihydrofolate reductase (Staphylococcus aureus, UniProt P0A017); assay: Inhibition of Staphylococcus aureus dihydrofolate reductase using dihydrofolate as substrate in presence of NADPH by microplate reader analysis
DNA gyrase subunit B = DNA gyrase subunit B (Staphylococcus aureus, UniProt P0A0K8); assay: Inhibition of Staphylococcus aureus DNA gyrase subunit B ATPase activity using relaxed pNO1 plasmid as substrate incubated for 30 mins by microplate reader analysis
[7] = tested on: Mycobacterium tuberculosis; assay: Antitubercular activity against Mycobacterium tuberculosis H37Rv assessed as inhibition of bacterial growth incubated for 24 hrs by two-fold dilution method; assay type: functional
Candida albicans [8] = assay: Antifungal activity against Candida albicans assessed as inhibition of fungal growth incubated for 16 to 18 hrs by serial dilution method; assay type: functional; conditions: time 16-18 hrs
Escherichia coli [9] = assay: Antibacterial activity against Escherichia coli assessed as inhibition of bacterial growth incubated for 16 to 18 hrs by serial dilution method; assay type: functional; conditions: time 16-18 hrs
Staphylococcus aureus [10] = assay: Antibacterial activity against Staphylococcus aureus assessed as inhibition of bacterial growth incubated for 16 to 18 hrs by serial dilution method; assay type: functional; conditions: time 16-18 hrs
Aspergillus flavus [11] = assay: Antifungal activity against Aspergillus flavus assessed as inhibition of fungal growth incubated for 16 to 18 hrs by serial dilution method; assay type: functional; conditions: time 16-18 hrs
Candida albicans [12] = assay: Antifungal activity against Candida albicans assessed as inhibition of fungal growth incubated for 20 hrs by macro-broth dilution method; assay type: functional

Dihydrofolate reductase, sequence (P0A017 whole entry): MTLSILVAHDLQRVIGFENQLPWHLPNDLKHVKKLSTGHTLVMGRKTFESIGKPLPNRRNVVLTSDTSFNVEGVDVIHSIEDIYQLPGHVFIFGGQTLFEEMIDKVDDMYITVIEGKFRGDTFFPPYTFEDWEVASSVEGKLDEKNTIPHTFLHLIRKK
DNA topoisomerase 4 subunit B, sequence (P0C1S7 whole entry): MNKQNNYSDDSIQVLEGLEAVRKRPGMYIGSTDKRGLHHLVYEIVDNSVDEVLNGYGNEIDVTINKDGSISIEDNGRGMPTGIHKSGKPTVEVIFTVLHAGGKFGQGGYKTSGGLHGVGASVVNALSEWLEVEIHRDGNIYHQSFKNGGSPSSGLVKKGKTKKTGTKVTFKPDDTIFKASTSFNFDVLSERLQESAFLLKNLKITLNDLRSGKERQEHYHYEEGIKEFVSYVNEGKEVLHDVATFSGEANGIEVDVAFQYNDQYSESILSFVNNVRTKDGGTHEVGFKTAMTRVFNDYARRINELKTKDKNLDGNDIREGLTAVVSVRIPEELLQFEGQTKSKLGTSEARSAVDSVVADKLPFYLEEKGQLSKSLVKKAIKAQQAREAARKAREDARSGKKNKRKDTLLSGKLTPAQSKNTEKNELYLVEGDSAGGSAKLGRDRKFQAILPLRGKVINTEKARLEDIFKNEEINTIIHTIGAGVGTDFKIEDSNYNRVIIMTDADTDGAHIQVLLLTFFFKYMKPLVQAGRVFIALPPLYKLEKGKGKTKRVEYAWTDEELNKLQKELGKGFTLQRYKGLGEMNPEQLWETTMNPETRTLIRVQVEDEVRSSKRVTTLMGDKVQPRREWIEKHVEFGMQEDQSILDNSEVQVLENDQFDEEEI
DNA gyrase subunit B, sequence (P0A0K8 whole entry): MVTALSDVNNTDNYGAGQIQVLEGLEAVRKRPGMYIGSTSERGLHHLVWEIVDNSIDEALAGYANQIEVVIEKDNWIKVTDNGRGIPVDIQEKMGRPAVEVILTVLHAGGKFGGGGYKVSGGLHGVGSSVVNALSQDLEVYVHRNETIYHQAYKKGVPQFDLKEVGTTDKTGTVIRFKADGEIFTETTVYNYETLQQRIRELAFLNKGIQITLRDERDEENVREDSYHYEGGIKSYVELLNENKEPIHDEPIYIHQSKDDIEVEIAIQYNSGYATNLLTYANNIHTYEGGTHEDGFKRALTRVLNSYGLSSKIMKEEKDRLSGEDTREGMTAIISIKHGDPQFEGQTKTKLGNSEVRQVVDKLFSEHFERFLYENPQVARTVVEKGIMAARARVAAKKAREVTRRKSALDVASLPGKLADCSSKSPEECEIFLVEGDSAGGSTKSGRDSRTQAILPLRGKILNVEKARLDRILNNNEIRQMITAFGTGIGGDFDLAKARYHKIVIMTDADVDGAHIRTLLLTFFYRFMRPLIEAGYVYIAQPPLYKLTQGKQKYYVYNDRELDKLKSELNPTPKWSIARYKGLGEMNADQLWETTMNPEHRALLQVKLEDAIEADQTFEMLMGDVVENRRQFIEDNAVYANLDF

COc1ccc(/C(=C/C(=O)N2CCOCC2)c2ccc(Cl)cc2)cc1OC
EC50 (Phytophthora infestans): 5.53 µg/mL (≈ 14.3 µM)

Cc1ccc(S(=O)(=O)NC(=S)Nc2nnc(CC(C)C)s2)cc1
MIC (Clostridioides difficile): 3.12 µg/mL (≈ 8.43 µM)
MIC (Streptococcus pneumoniae): 0.78 µg/mL (≈ 2.11 µM)
MIC (Fusarium oxysporum): 1.56 µg/mL (≈ 4.21 µM)
MIC (Aspergillus niger): 50 µg/mL (≈ 135 µM)
MIC [1]: 12.5 µg/mL (≈ 33.7 µM)
MIC (Saccharomyces cerevisiae): 3.12 µg/mL (≈ 8.43 µM)
MIC (Staphylococcus aureus [2]): 100 µg/mL (≈ 270 µM)
MIC (Aspergillus flavus [3]): 0.78 µg/mL (≈ 2.11 µM)
MIC (Klebsiella pneumoniae): 400 µg/mL (≈ 1080 µM)
MIC (Bacillus subtilis): 0.78 µg/mL (≈ 2.11 µM)
MIC (Pseudomonas aeruginosa): 6.25 µg/mL (≈ 16.9 µM)
MIC (Candida albicans [4]): 3.12 µg/mL (≈ 8.43 µM)
MIC (Escherichia coli [5]): 6.25 µg/mL (≈ 16.9 µM)
MIC (Salmonella typhimurium): 50 µg/mL (≈ 135 µM)

CCCc1nnc(NC(=S)NS(=O)(=O)c2ccc(C)cc2)s1
MIC (Clostridioides difficile): 25 µg/mL (≈ 70.1 µM)
MIC (Streptococcus pneumoniae): 1.56 µg/mL (≈ 4.38 µM)
MIC (Fusarium oxysporum): 200 µg/mL (≈ 561 µM)
MIC (Aspergillus niger): 12.5 µg/mL (≈ 35.1 µM)
MIC [1]: 25 µg/mL (≈ 70.1 µM)
MIC (Saccharomyces cerevisiae): 1.56 µg/mL (≈ 4.38 µM)
MIC (Staphylococcus aureus [2]): 50 µg/mL (≈ 140 µM)
MIC (Aspergillus flavus [3]): 1.56 µg/mL (≈ 4.38 µM)
MIC (Klebsiella pneumoniae): 25 µg/mL (≈ 70.1 µM)
MIC (Bacillus subtilis): 3.12 µg/mL (≈ 8.77 µM)
MIC (Pseudomonas aeruginosa): 100 µg/mL (≈ 281 µM)
MIC (Candida albicans [4]): 3.12 µg/mL (≈ 8.77 µM)
MIC (Escherichia coli [5]): 12.5 µg/mL (≈ 35.1 µM)
MIC (Salmonella typhimurium): 25 µg/mL (≈ 70.1 µM)

O=S(=O)(NC(=S)Nc1ccccc1)c1ccc(Cl)cc1
IC50 (Carbonic anhydrase 2): 384 µM

CCCCc1nnc(NC(=S)NS(=O)(=O)c2ccc(C)cc2)s1
MIC (Clostridioides difficile): 400 µg/mL (≈ 1080 µM)
MIC (Streptococcus pneumoniae): 400 µg/mL (≈ 1080 µM)
MIC (Fusarium oxysporum): 400 µg/mL (≈ 1080 µM)
MIC (Aspergillus niger): 400 µg/mL (≈ 1080 µM)
MIC [1]: 400 µg/mL (≈ 1080 µM)
MIC (Saccharomyces cerevisiae): 400 µg/mL (≈ 1080 µM)
MIC (Staphylococcus aureus [2]): 400 µg/mL (≈ 1080 µM)
MIC (Aspergillus flavus [3]): 400 µg/mL (≈ 1080 µM)
MIC (Klebsiella pneumoniae): 400 µg/mL (≈ 1080 µM)
MIC (Bacillus subtilis): 400 µg/mL (≈ 1080 µM)
MIC (Pseudomonas aeruginosa): 400 µg/mL (≈ 1080 µM)
MIC (Candida albicans [4]): 400 µg/mL (≈ 1080 µM)
MIC (Escherichia coli [5]): 400 µg/mL (≈ 1080 µM)
MIC (Salmonella typhimurium): 400 µg/mL (≈ 1080 µM)

CCc1nnc(NC(=S)NS(=O)(=O)c2ccc(C)cc2)s1
MIC (Clostridioides difficile): 0.78 µg/mL (≈ 2.28 µM)
IC50 [6]: 78.1 µM
IC50 (Dihydrofolate reductase): 470 nM
MIC (Streptococcus pneumoniae): 3.12 µg/mL (≈ 9.12 µM)
MIC (Fusarium oxysporum): 6.25 µg/mL (≈ 18.2 µM)
MIC (Aspergillus niger): 100 µg/mL (≈ 292 µM)
MIC [1]: 50 µg/mL (≈ 146 µM)
IC50 (DNA gyrase subunit B): 3170 nM
MIC (Saccharomyces cerevisiae): 25 µg/mL (≈ 73 µM)
MIC (Staphylococcus aureus [2]): 6.25 µg/mL (≈ 18.2 µM)
MIC (Aspergillus flavus [3]): 6.25 µg/mL (≈ 18.2 µM)
MIC (Klebsiella pneumoniae): 12.5 µg/mL (≈ 36.5 µM)
MIC (Bacillus subtilis): 1.56 µg/mL (≈ 4.56 µM)
MIC (Pseudomonas aeruginosa): 50 µg/mL (≈ 146 µM)
MIC (Candida albicans [4]): 1.56 µg/mL (≈ 4.56 µM)
MIC (Escherichia coli [5]): 200 µg/mL (≈ 584 µM)
MIC (Salmonella typhimurium): 3.12 µg/mL (≈ 9.12 µM)

FC(F)(F)c1cc(NC(=S)Nc2nnc(-c3ccc(Cl)cc3)s2)ccc1Cl
MIC [7]: 10.9 µM (≈ 4.9 µg/mL)

S=C(/N=C/c1cc2cc(Cl)ccc2nc1Cl)Nc1nnc(-c2ccc(Cl)cc2)s1
MIC (Candida albicans [8]): 3.12 µg/mL (≈ 6.52 µM)
MIC (Escherichia coli [9]): 3.12 µg/mL (≈ 6.52 µM)
MIC (Staphylococcus aureus [10]): 3.12 µg/mL (≈ 6.52 µM)
MIC (Aspergillus flavus [11]): 3.12 µg/mL (≈ 6.52 µM)

CC(=O)OC[C@H]1O[C@@H](Sc2nnc(NC(=O)c3ccc(F)cc3)s2)[C@@H](OC(C)=O)[C@H](OC(C)=O)[C@@H]1OC(C)=O
EC50 (Phytophthora infestans): 3.43 µg/mL (≈ 5.86 µM)

Cc1ccc(S(=O)(=O)NC(=S)Nc2nnc(C)s2)cc1
MIC (Clostridioides difficile): 6.25 µg/mL (≈ 19 µM)
MIC (Streptococcus pneumoniae): 12.5 µg/mL (≈ 38.1 µM)
MIC (Fusarium oxysporum): 25 µg/mL (≈ 76.1 µM)
MIC (Aspergillus niger): 50 µg/mL (≈ 152 µM)
MIC [1]: 100 µg/mL (≈ 304 µM)
MIC (Saccharomyces cerevisiae): 6.25 µg/mL (≈ 19 µM)
MIC (Staphylococcus aureus [2]): 25 µg/mL (≈ 76.1 µM)
MIC (Aspergillus flavus [3]): 25 µg/mL (≈ 76.1 µM)
MIC (Klebsiella pneumoniae): 6.25 µg/mL (≈ 19 µM)
MIC (Bacillus subtilis): 6.25 µg/mL (≈ 19 µM)
MIC (Pseudomonas aeruginosa): 1.56 µg/mL (≈ 4.75 µM)
MIC (Candida albicans [4]): 0.78 µg/mL (≈ 2.37 µM)
MIC (Escherichia coli [5]): 50 µg/mL (≈ 152 µM)
MIC (Salmonella typhimurium): 12.5 µg/mL (≈ 38.1 µM)

C=CCNc1nnc(-c2ccccc2OCc2ccc(Cl)cc2)s1
MIC (Candida albicans [12]): 0.08 µg/mL (≈ 0.224 µM)

Cc1ccc(S(=O)(=O)NC(=S)Nc2nncs2)cc1
MIC (Clostridioides difficile): 200 µg/mL (≈ 636 µM)
IC50 [6]: 67.6 µM
IC50 (Dihydrofolate reductase): 370 nM
MIC (Streptococcus pneumoniae): 12.5 µg/mL (≈ 39.8 µM)
MIC (Fusarium oxysporum): 25 µg/mL (≈ 79.5 µM)
MIC (Aspergillus niger): 200 µg/mL (≈ 636 µM)
MIC [1]: 3.12 µg/mL (≈ 9.94 µM)
IC50 (DNA gyrase subunit B): 1560 nM
MIC (Saccharomyces cerevisiae): 12.5 µg/mL (≈ 39.8 µM)
MIC (Staphylococcus aureus [2]): 3.12 µg/mL (≈ 9.94 µM)
MIC (Aspergillus flavus [3]): 50 µg/mL (≈ 159 µM)
MIC (Klebsiella pneumoniae): 50 µg/mL (≈ 159 µM)
MIC (Bacillus subtilis): 12.5 µg/mL (≈ 39.8 µM)
MIC (Pseudomonas aeruginosa): 25 µg/mL (≈ 79.5 µM)
MIC (Candida albicans [4]): 25 µg/mL (≈ 79.5 µM)
MIC (Escherichia coli [5]): 1.56 µg/mL (≈ 4.96 µM)
MIC (Salmonella typhimurium): 1.56 µg/mL (≈ 4.96 µM)
